# According to patent US20020137929A1, “1 - (3-heterocyclylphenyl) isothiourea, -isourea, -guanidine and -amidine herbicidal agents” (Intellectual Property Department, BASF Aktiengesellschaft, priority 1998, published 2002):
# Legend:
# [1] = system: AMBEL (Ragweed, Common); assay: Postemergence herbicidal evaluation; format: in vivo, Ambrosia artemisifolia
# Outline: (§1)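 Visual 0-9 injury score (stand, vigor, malformation, size, chlorosis, appearance vs untreated) taken four to five weeks post-spray, averaged across repeat tests. Test plants about two weeks old; foliar spray of acetone/water (1:1) with 0.5% surfactant delivering ~0.0156-0.500 kg active/ha.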
# [2] = system: IPOHE (Morningglory, Ivyleaf); assay: Postemergence herbicidal evaluation; format: in vivo, Ipomoea hederacea
# Outline: as §1
# [3] = system: GLXMAW (Soybean, Williams); assay: Postemergence herbicidal evaluation; format: in vivo, Glycine max, (L.) Merr. cv Williams
# Outline: as §1
# [4] = system: ZEAMX (Corn, Field); assay: Postemergence herbicidal evaluation; format: in vivo, Zea mays
# Outline: as §1
# [5] = system: ABUTH (Velvetleaf); assay: Preemergence herbicidal evaluation; format: in vivo, Abutilon theophrasti; settings: rated 4-5 weeks after treatment
# Outline: (§2)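 Herbicidal effect scored visually, 0-9, at 4 to 5 weeks against a control; compound applied preemergence by aqueous acetone spray to seeded soil at about 0.0156 to 0.500 kg/ha.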
# [6] = system: AMBEL (Ragweed, Common); assay: Preemergence herbicidal evaluation; format: in vivo, Ambrosia artemisifolia; settings: rated 4-5 weeks after treatment
# Outline: as §2
# [7] = system: CASOB (Sicklepod); assay: Preemergence herbicidal evaluation; format: in vivo, Cassia obtusifolia; settings: rated 4-5 weeks after treatment
# Outline: as §2
# [8] = system: GALAP (Galium); assay: Preemergence herbicidal evaluation; format: in vivo, Galium aparine; settings: rated 4-5 weeks after treatment
# Outline: as §2
# [9] = system: ECHCG (Barnyardgrass); assay: Preemergence herbicidal evaluation; format: in vivo, Echinochloa crus-galli; settings: rated 4-5 weeks after treatment
# Outline: as §2
# [10] = system: SETVI (Foxtail, Green); assay: Preemergence herbicidal evaluation; format: in vivo, Setaria viridis; settings: rated 4-5 weeks after treatment
# Outline: as §2
# [11] = system: GLXMAW (Soybean, Williams); assay: Preemergence herbicidal evaluation; format: in vivo, Glycine max, (L.) Merr. cv Williams; settings: rated 4-5 weeks after treatment
# Outline: as §2
# [12] = system: CYPSE (Flatsedge); assay: Preemergence weed control under flooded paddy conditions; format: in vivo, Cyperus serotinus; settings: rated 3-4 weeks after treatment
# Outline: (§3)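 Visual injury scored 0-9 against control three to four weeks post-treatment, greenhouse-grown. Application: acetone/water (50/50) solutions dosed directly into flood water (1.5-3 cm over silt loam, planted top 0.5 cm), roughly 0.0313 to 0.500 kg/ha active ingredient.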
# [13] = system: SAGPY (Arrowhead (Pygmaea)); assay: as above; format: in vivo, Sagittaria pygmaea; settings: rated 3-4 weeks after treatment
# Outline: as §3
# [14] = system: ECHORC (Watergrass (Calif.)); assay: Postemergence weed control under flooded paddy conditions; format: in vivo, Echinochloa oryzoides; settings: postemergence weeds
# Outline: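 Flood-water application, about 0.0313–0.500 kg/ha a.i. in aqueous/acetone 50/50 v/v; water depth 1.5–3 cm throughout. Weeds 3–5 cm, rice 1.5–2.5 leaf. Greenhouse; 0–9 visual rating vs control at 3–4 wk.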
smiles,measurement,setting,value
"CCOC(=O)CN1C(=O)C[S+]([O-])/C1=N/c1cc(-n2c(=O)cc(C(F)(F)F)n(C)c2=O)c(F)cc1Cl (centres unmarked) [Compound 45, 2-{{2-Chloro-5-[3,6-dihydro-3-methyl-2,6-dioxo-4-(trifluoromethyl)-1(2H)-pyrimidinyl]-4-fluoro-phenyl}imino}-4-oxo-3-thiazolidineacetic acid, ethyl ester, 1-oxide]",Postemergence herbicidal rating AMBEL,[1]; Rate 0.0313 kg/ha,4.0
same,Postemergence herbicidal rating AMBEL,[1]; Rate 0.0625 kg/ha,9.0
same,Postemergence herbicidal rating IPOHE,[2]; Rate 0.0156 kg/ha,9.0
same,Postemergence herbicidal rating IPOHE,[2]; Rate 0.0313 kg/ha,9.0
same,Postemergence herbicidal rating IPOHE,[2]; Rate 0.0625 kg/ha,9.0
same,Postemergence herbicidal rating GLXMAW,[3]; Rate 0.0156 kg/ha,5.5
same,Postemergence herbicidal rating GLXMAW,[3]; Rate 0.0313 kg/ha,6.5
same,Postemergence herbicidal rating GLXMAW,[3]; Rate 0.0625 kg/ha,7.0
same,Postemergence herbicidal rating ZEAMX,[4]; Rate 0.0156 kg/ha,4.5
same,Postemergence herbicidal rating ZEAMX,[4]; Rate 0.0313 kg/ha,5.0
same,Postemergence herbicidal rating ZEAMX,[4]; Rate 0.0625 kg/ha,5.5
same,Preemergence herbicidal rating ABUTH,[5]; rate 0.0156 kg/ha,0.0
same,Preemergence herbicidal rating ABUTH,[5]; rate 0.0313 kg/ha,9.0
same,Preemergence herbicidal rating ABUTH,[5]; rate 0.0625 kg/ha,9.0
same,Preemergence herbicidal rating ABUTH,[5]; rate 0.1250 kg/ha,9.0
same,Preemergence herbicidal rating ABUTH,[5]; rate 0.2500 kg/ha,9.0
same,Preemergence herbicidal rating AMBEL,[6]; rate 0.0156 kg/ha,0.0
same,Preemergence herbicidal rating AMBEL,[6]; rate 0.0313 kg/ha,0.0
same,Preemergence herbicidal rating AMBEL,[6]; rate 0.0625 kg/ha,0.0
same,Preemergence herbicidal rating AMBEL,[6]; rate 0.1250 kg/ha,0.0
same,Preemergence herbicidal rating AMBEL,[6]; rate 0.2500 kg/ha,2.0
same,Preemergence herbicidal rating CASOB,[7]; rate 0.0156 kg/ha,0.0
same,Preemergence herbicidal rating CASOB,[7]; rate 0.0313 kg/ha,0.0
same,Preemergence herbicidal rating CASOB,[7]; rate 0.0625 kg/ha,0.0
same,Preemergence herbicidal rating CASOB,[7]; rate 0.1250 kg/ha,0.0
same,Preemergence herbicidal rating CASOB,[7]; rate 0.2500 kg/ha,0.0
same,Preemergence herbicidal rating GALAP,[8]; rate 0.0156 kg/ha,0.0
same,Preemergence herbicidal rating GALAP,[8]; rate 0.0313 kg/ha,0.0
same,Preemergence herbicidal rating GALAP,[8]; rate 0.0625 kg/ha,0.0
same,Preemergence herbicidal rating GALAP,[8]; rate 0.1250 kg/ha,0.0
same,Preemergence herbicidal rating GALAP,[8]; rate 0.2500 kg/ha,7.0
same,Preemergence herbicidal rating ECHCG,[9]; rate 0.0156 kg/ha,0.0
same,Preemergence herbicidal rating ECHCG,[9]; rate 0.0313 kg/ha,0.0
same,Preemergence herbicidal rating ECHCG,[9]; rate 0.0625 kg/ha,0.0
same,Preemergence herbicidal rating ECHCG,[9]; rate 0.1250 kg/ha,0.0
same,Preemergence herbicidal rating ECHCG,[9]; rate 0.2500 kg/ha,0.0
same,Preemergence herbicidal rating SETVI,[10]; rate 0.0156 kg/ha,0.0
same,Preemergence herbicidal rating SETVI,[10]; rate 0.0313 kg/ha,0.0
same,Preemergence herbicidal rating SETVI,[10]; rate 0.0625 kg/ha,0.0
same,Preemergence herbicidal rating SETVI,[10]; rate 0.1250 kg/ha,0.0
same,Preemergence herbicidal rating SETVI,[10]; rate 0.2500 kg/ha,0.0
same,Preemergence herbicidal rating GLXMAW,[11]; rate 0.0156 kg/ha,0.0
same,Preemergence herbicidal rating GLXMAW,[11]; rate 0.0313 kg/ha,0.0
same,Preemergence herbicidal rating GLXMAW,[11]; rate 0.0625 kg/ha,0.0
same,Preemergence herbicidal rating GLXMAW,[11]; rate 0.1250 kg/ha,0.0
same,Preemergence herbicidal rating GLXMAW,[11]; rate 0.2500 kg/ha,3.0
same,Herbicidal rating CYPSE,[12]; 0.0313 kg/ha,0.0
same,Herbicidal rating CYPSE,[12]; 0.0625 kg/ha,0.0
same,Herbicidal rating CYPSE,[12]; 0.2500 kg/ha,0.0
same,Herbicidal rating SAGPY,[13]; 0.0313 kg/ha,0.0
same,Herbicidal rating SAGPY,[13]; 0.0625 kg/ha,0.0
same,Herbicidal rating SAGPY,[13]; 0.1250 kg/ha,0.0
same,Herbicidal rating SAGPY,[13]; 0.2500 kg/ha,4.0
same,Herbicidal rating ECHORC,"[14]; rate 0.0313 kg/ha, 3-4 weeks after treatment",3.0
same,Herbicidal rating ECHORC,"[14]; rate 0.0625 kg/ha, 3-4 weeks after treatment",4.0
same,Herbicidal rating ECHORC,"[14]; rate 0.1250 kg/ha, 3-4 weeks after treatment",7.0
same,Herbicidal rating ECHORC,"[14]; rate 0.2500 kg/ha, 3-4 weeks after treatment",7.0
"CCOC(=O)CN1C(=O)C(CC(=O)OC(C)C)SC1=Nc1cc(-n2c(=O)cc(C(F)(F)F)n(C)c2=O)c(F)cc1Cl (centres unmarked) [Compound 60, 2-{{2-Chloro-5-[3,6-dihydro-3-methyl-2,6-dioxo-4-(trifluoromethyl)-1(2H)-pyrimidinyl]-4-fluoro-phenyl}imino}-4-oxo-3,5-thiazolidinediacetic acid, 3-ethyl isopropyl ester]",Postemergence herbicidal rating AMBEL,[1]; Rate 0.0158 kg/ha,7.0
same,Postemergence herbicidal rating AMBEL,[1]; Rate 0.0315 kg/ha,9.0
same,Postemergence herbicidal rating AMBEL,[1]; Rate 0.0630 kg/ha,9.0
same,Postemergence herbicidal rating IPOHE,[2]; Rate 0.0158 kg/ha,9.0
same,Postemergence herbicidal rating IPOHE,[2]; Rate 0.0315 kg/ha,9.0
same,Postemergence herbicidal rating IPOHE,[2]; Rate 0.0630 kg/ha,9.0
same,Postemergence herbicidal rating GLXMAW,[3]; Rate 0.0158 kg/ha,6.5
same,Postemergence herbicidal rating GLXMAW,[3]; Rate 0.0315 kg/ha,6.5
same,Postemergence herbicidal rating GLXMAW,[3]; Rate 0.0630 kg/ha,7.0
same,Postemergence herbicidal rating ZEAMX,[4]; Rate 0.0158 kg/ha,5.0
same,Postemergence herbicidal rating ZEAMX,[4]; Rate 0.0315 kg/ha,5.0
same,Postemergence herbicidal rating ZEAMX,[4]; Rate 0.0630 kg/ha,5.5
same,Preemergence herbicidal rating ABUTH,[5]; rate 0.0156 kg/ha,2.0
same,Preemergence herbicidal rating ABUTH,[5]; rate 0.0313 kg/ha,9.0
same,Preemergence herbicidal rating ABUTH,[5]; rate 0.0625 kg/ha,7.0
same,Preemergence herbicidal rating ABUTH,[5]; rate 0.1250 kg/ha,9.0
same,Preemergence herbicidal rating ABUTH,[5]; rate 0.2500 kg/ha,9.0
same,Preemergence herbicidal rating ABUTH,[5]; rate 0.5000 kg/ha,9.0
same,Preemergence herbicidal rating AMBEL,[6]; rate 0.0156 kg/ha,0.0
same,Preemergence herbicidal rating AMBEL,[6]; rate 0.0313 kg/ha,0.0
same,Preemergence herbicidal rating AMBEL,[6]; rate 0.0625 kg/ha,2.0
same,Preemergence herbicidal rating AMBEL,[6]; rate 0.1250 kg/ha,7.0
same,Preemergence herbicidal rating AMBEL,[6]; rate 0.2500 kg/ha,7.0
same,Preemergence herbicidal rating AMBEL,[6]; rate 0.5000 kg/ha,9.0
same,Preemergence herbicidal rating CASOB,[7]; rate 0.0156 kg/ha,0.0
same,Preemergence herbicidal rating CASOB,[7]; rate 0.0313 kg/ha,0.0
same,Preemergence herbicidal rating CASOB,[7]; rate 0.0625 kg/ha,0.0
same,Preemergence herbicidal rating CASOB,[7]; rate 0.1250 kg/ha,1.0
same,Preemergence herbicidal rating CASOB,[7]; rate 0.2500 kg/ha,5.5
same,Preemergence herbicidal rating CASOB,[7]; rate 0.5000 kg/ha,4.0
same,Preemergence herbicidal rating GALAP,[8]; rate 0.0156 kg/ha,0.0
same,Preemergence herbicidal rating GALAP,[8]; rate 0.0313 kg/ha,0.0
same,Preemergence herbicidal rating GALAP,[8]; rate 0.0625 kg/ha,0.0
same,Preemergence herbicidal rating GALAP,[8]; rate 0.1250 kg/ha,0.0
same,Preemergence herbicidal rating GALAP,[8]; rate 0.2500 kg/ha,0.0
same,Preemergence herbicidal rating ECHCG,[9]; rate 0.0156 kg/ha,0.0
same,Preemergence herbicidal rating ECHCG,[9]; rate 0.0313 kg/ha,0.0
same,Preemergence herbicidal rating ECHCG,[9]; rate 0.0625 kg/ha,0.0
same,Preemergence herbicidal rating ECHCG,[9]; rate 0.1250 kg/ha,0.0
same,Preemergence herbicidal rating ECHCG,[9]; rate 0.2500 kg/ha,0.5
same,Preemergence herbicidal rating ECHCG,[9]; rate 0.5000 kg/ha,2.0
same,Preemergence herbicidal rating SETVI,[10]; rate 0.0156 kg/ha,0.0
same,Preemergence herbicidal rating SETVI,[10]; rate 0.0313 kg/ha,0.5
same,Preemergence herbicidal rating SETVI,[10]; rate 0.0625 kg/ha,0.5
same,Preemergence herbicidal rating SETVI,[10]; rate 0.1250 kg/ha,4.5
same,Preemergence herbicidal rating SETVI,[10]; rate 0.2500 kg/ha,4.5
same,Preemergence herbicidal rating SETVI,[10]; rate 0.5000 kg/ha,8.0
same,Preemergence herbicidal rating GLXMAW,[11]; rate 0.0156 kg/ha,1.0
same,Preemergence herbicidal rating GLXMAW,[11]; rate 0.0313 kg/ha,0.5
same,Preemergence herbicidal rating GLXMAW,[11]; rate 0.0625 kg/ha,1.5
same,Preemergence herbicidal rating GLXMAW,[11]; rate 0.1250 kg/ha,3.0
same,Preemergence herbicidal rating GLXMAW,[11]; rate 0.2500 kg/ha,3.5
same,Preemergence herbicidal rating GLXMAW,[11]; rate 0.5000 kg/ha,6.0
same,CYPSE herbicidal effect rating,[12]; 0.0313 kg/ha,2.0
same,CYPSE herbicidal effect rating,[12]; 0.0625 kg/ha,2.0
same,CYPSE herbicidal effect rating,[12]; 0.1250 kg/ha,4.0
same,CYPSE herbicidal effect rating,[12]; 0.2500 kg/ha,4.0
same,SAGPY herbicidal effect rating,[13]; 0.0313 kg/ha,3.0
same,SAGPY herbicidal effect rating,[13]; 0.0625 kg/ha,4.0
same,SAGPY herbicidal effect rating,[13]; 0.1250 kg/ha,9.0
same,SAGPY herbicidal effect rating,[13]; 0.2500 kg/ha,9.0
same,Herbicidal rating ECHORC,"[14]; Rate 0.0313 kg/ha, rated 3 to 4 weeks after treatment",7.0
same,Herbicidal rating ECHORC,"[14]; Rate 0.0625 kg/ha, rated 3 to 4 weeks after treatment",9.0
same,Herbicidal rating ECHORC,"[14]; Rate 0.1250 kg/ha, rated 3 to 4 weeks after treatment",9.0
same,Herbicidal rating ECHORC,"[14]; Rate 0.2500 kg/ha, rated 3 to 4 weeks after treatment",9.0
